Measured values from US12145975B2, “Fusion proteins for the treatment of cardiometabolic diseases” (Shattuck Labs, Inc., priority 2022, dated 2024).
Entries after “also recorded” stand apart in the source; their conditions may differ. Where no end group is shown, it is not given here.

Columns and labels:
[1] = target: T1, GIP receptor (GIPR) (Rattus norvegicus, UniProt P43219); test: cAMP-Glo assay in rat insulinoma INS-1 cells harboring a cAMP-luciferase reporter gene; type: cell-based; conditions: 1 hour glucose, then 2 hour incubation with increasing amounts; FIG. 4A
T1 construct: endogenous in cells; host or cells: rat INS-1 insulinoma cells (derivatives with a cAMP-luciferase reporter or pGloSensor-22F)
T1 sequence (P43219 19-455): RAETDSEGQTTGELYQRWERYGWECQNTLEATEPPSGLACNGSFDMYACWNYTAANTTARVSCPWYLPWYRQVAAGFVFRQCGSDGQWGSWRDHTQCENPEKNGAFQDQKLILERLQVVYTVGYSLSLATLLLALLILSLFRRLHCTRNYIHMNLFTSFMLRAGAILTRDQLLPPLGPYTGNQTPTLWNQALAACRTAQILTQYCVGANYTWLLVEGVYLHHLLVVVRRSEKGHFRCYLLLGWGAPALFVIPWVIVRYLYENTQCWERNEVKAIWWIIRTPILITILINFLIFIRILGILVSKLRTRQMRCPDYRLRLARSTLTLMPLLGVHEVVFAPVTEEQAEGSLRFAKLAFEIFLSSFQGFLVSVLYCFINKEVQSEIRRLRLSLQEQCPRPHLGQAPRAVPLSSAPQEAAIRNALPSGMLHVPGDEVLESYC
Description: Rat insulinoma INS-1 cells harboring a cAMP-luciferase reporter gene were used to study the activation of GIPR. Without wishing to be bound by theory, the activation of GIPR leads to temporary depletion of ATP because of consumption of ATP in cyclization reaction to produce cAMP as well as by phosphorylation by protein kinase A of its substrate. Without wishing to be bound by theory, the temporary depletion of ATP leads to an inhibition of luciferase activity, which needs ATP as a substrate.

[2] = tested on: HFD-fed mice; test: glucose tolerance test (GTT) model in HFD-fed mice; type: in vivo; conditions: for serum insulin following glucose administration (time course) / glucose tolerance: GTT; for serum insulin following glucose administration (time course): FIG. 7C; for serum glucose following glucose administration (time course): i.v. treatment, 18 hours fast, 2 g/kg glucose i.v., tirzepatide 1.25 mpk, fusion protein 5 mpk, mRNA 1 mpk, FIG. 7A; for glucose tolerance: summary of Example 11
Description: Cages were changed once, then changed once a week.
The mice administered the above treatment by i.v. injections. The mice were then fasted for 18 hours and administered a dose of 2 g/kg glucose by i.v. injections. Blood samples were drawn by tail clip bleeding at 15, 30 and 60 minutes post dosing and cardiac bleeding was used at 2 hours after glucose injection as end-point.

[3] = tested on: HFD-fed mice; test: longer-term obesity model in HFD-fed mice; conditions: for blood glucose levels compared to the untreated mice: Days 0, 1, 10 and 15, FIG. 8E; for plasma insulin levels on Day 15: FIG. 8C right panel; for average daily food intake compared to the untreated mice: FIG. 8D; for collagen staining (fibrosis), liver sections stained with picrosirius red / collagen staining (fibrosis) in comparison with tirzepatide or dulaglutide: FIG. 8I; for hepatocellular ballooning and steatosis (liver H&E histology): FIG. 8J; for liver weight, PBS control versus treated mice / subcutaneous white adipose tissue (sWAT) weight: day 19 terminal necropsy; for liver weight, PBS control versus treated mice: FIG. 8G; for subcutaneous white adipose tissue (sWAT) weight: FIG. 8H; for change in body weight: tail vein on Day 0, 4, 7, 10, 14, 18, dulaglutide 1 mpk, tirzepatide 0.5 mpk, fusion protein 5 mpk, mRNA 1 mpk, FIG. 8A; for plasma insulin levels on Day 1: between 15 and 120 minutes after treatment, FIG. 8C left panel; for tolerability / clinical observations: obesity model, repeated tail vein dosing; for weights of individual mice: FIG. 8B; for collagen staining (fibrosis) in comparison with tirzepatide or dulaglutide: picrosirius red
Description: Mice (Male C57BL/6) were of approximately 13 weeks of age were housed 4 mice per cage. Following 2 weeks of acclimation, mice were introduced to 60% kcal HFD (Research Diets D12492). Cages were changed once, then changed once a week. Weekly body weights and non-fasted blood glucose were collected.
Mice were injected by tail vein with vehicle or the drugs on Day 0, Day 4, Day 7, Day 10, Day 14, and Day 18. Body weights were measured every 2 days. Change in body weight was calculated and plotted.
Cumulative food intake was measured between day 0 and 3, between day 4 and 7, between day 7 and day 11, and between day 11 and day 14, and represented as average daily food intake. For food consumption, remaining food was weighed on days 3, 8, and 15, and subtracted from the starting weight. This value was then normalized to the number of mice in the cage, and the number of days the mice had access to the food prior to weighing.
Blood glucose levels were measured on Days 0, 1, 10 and 15 and plotted.
On day 19 during terminal necropsy, liver and subcutaneous white adipose tissue were recovered weighed from treated animals.
To further analyze the changes in liver, histopathological analysis was conducted. Briefly, the liver tissue was stained with hematoxylin and eosin (H&E) and evaluated using standard techniques.

[4] = target: T2, GIPR (Rattus norvegicus, UniProt P43219); test: GIPR agonism/antagonism in rat INS-1 cells having pGloSensor-22F biosensor; type: cell-based; design: dose or concentration left out as unconfirmed
T2 construct: endogenous in cells; host or cells: rat INS-1 insulinoma cells (derivatives with a cAMP-luciferase reporter or pGloSensor-22F)
T2 sequence (P43219 19-455): T1 sequence (P43219 19-455)
Description: A series of GIP antagonist peptides were evaluated at blocking human GIP (hGIP) agonism and the induction of cAMP. Briefly, rat INS-1 cells having pGloSensor-22F (Promega) were constructed and used to evaluate GIPR agonism and antagonism. […] The conformational change leads to the activation of the luciferase enzyme, thereby allowing detection of activation of GIPR, which produces cAMP upon activation.
To assay for GIPR agonism, rat INS-1 cells having pGloSensor-22F biosensor were treated with increasing concentrations of GIP(Ag). Immediately after the addition, the luminescence of the cells was measured, normalized using the basal luminescence and plotted.
GIPR antagonism was measured as the inhibition of GIP(Ag)-induced activation of the cAMP-luciferase reporter gene in rat INS-1 cells having pGloSensor-22F biosensor. The following GIP derivatives accessed in this assay for GIPR antagonism: GIP(Ant 3-30), GIP(Ant 3-30NH2), (GIP(Ant 3-30) having amidated carboxy terminus), GIP(AntPro3), GIP(AntPro3NH2), GIP(Ant3-30, Pro3) and GIP(Ant3-30, Pro3NH2). Briefly, rat INS-1 cells having pGloSensor-22F were treated with increasing doses of the above various GIP derivatives, mixed with […] GIP(Ag). Immediately after the addition, the luminescence of the cells was measured, normalized using the basal luminescence and plotted.
The GIP(Ag) was re-evaluated across a broader concentration range. Rat INS-1 cells having pGloSensor-22F biosensor were treated with increasing concentrations of GIP(Ag). Immediately after the addition, the luminescence of the cells was measured, normalized using the basal luminescence and plotted.
The GIP(AntPro3) and GIP(AntPro3NH2) were re-evaluated across a broader concentration range. Briefly, rat INS-1 cells having pGloSensor-22F were treated with increasing doses of GIP(AntPro3) and GIP(AntPro3NH2), mixed with […] GIP(Ag). Immediately after the addition, the luminescence of the cells was measured, normalized using the basal luminescence and plotted.

[5] = tested on: rat insulinoma INS-1 cells; test: in vitro glucose-stimulated insulin secretion (GSIS) in rat insulinoma INS-1 cells; type: cell-based; conditions: 1 hour glucose, then 2 hour incubation; ELISA; FIG. 4B
Description: X is a known inducer of GSIS.

[6] = broader concentration range, mixed with GIP(Ag), FIG. 5B
[7] = increasing doses mixed with GIP(Ag), FIG. 5A

Substance	inhibition of luciferase (activation of GIPR) [1]	serum insulin following glucose administration (time course) [2]	serum glucose following glucose administration (time course) [2]	blood glucose levels compared to the untreated mice [3]	plasma insulin levels on Day 15 [3]	average daily food intake compared to the untreated mice [3]	collagen staining (fibrosis), liver sections stained with picrosirius red [3]	hepatocellular ballooning and steatosis (liver H&E histology) [3]	liver weight, PBS control versus treated mice [3]	subcutaneous white adipose tissue (sWAT) weight [3]	hepatocellular ballooning and steatosis (liver H&E histology) compared to untreated animals ([3]; higher magnifications, FIG. 8K)	change in body weight [3]	inhibition of GIP(Ag)-induced activation of the cAMP-luciferase reporter gene (GIPR antagonism) [4, 6]	inhibition of GIP(Ag)-induced activation of the cAMP-luciferase reporter gene (GIPR antagonism) [4, 7]	plasma insulin levels on Day 1 [3]	tolerability / clinical observations [3]	insulin in the culture supernatant (glucose-stimulated insulin secretion) [5]	glucose tolerance [2]	weights of individual mice [3]	collagen staining (fibrosis) in comparison with tirzepatide or dulaglutide [3]
tirzepatide [reference compound]	dose-dependent and saturable inhibition of luciferase with similar potency	rapid induction of insulin	much smaller increase in serum glucose	decrease in blood glucose	significant decrease in the levels of insulin	decrease in food intake	decrease in collagen staining	decrease in hepatocellular ballooning and steatosis	the livers of control mice that received only PBS were much heavier compared to the mice receiving treatments	decreased	significant decrease in hepatocellular ballooning and steatosis	progressive weight loss	–	–	–	–	–	–	–	–
GIP(AntPro3): GIP Antagonist (amino acids 1-42, having a E3P substitution); SEQ ID NO: 97 (YAPGTFISDYSIAMDKIHQQDFVNWLLAQKGKKNDWKHNITQ)	–	–	–	–	–	–	–	–	–	–	–	–	dose-dependent inhibition of GIP(Ag)-induced activation of the cAMP-luciferase reporter gene	more potent inhibition of GIP agonist signaling than the others tested; also recorded: maximal level of a dose-dependent inhibition of GIP(Ag)-induced activation	–	–	–	–	–	–
GIP(AntPro3NH2): GIP antagonist peptide, GIP(AntPro3) presumably with amidated carboxy terminus (YAPGTFISDYSIAMDKIHQQDFVNWLLAQKGKKNDWKHNITQ; also: presumably amidated C-terminus)	–	–	–	–	–	–	–	–	–	–	–	–	dose-dependent inhibition of GIP(Ag)-induced activation of the cAMP-luciferase reporter gene	more potent inhibition of GIP agonist signaling than the others tested; also recorded: maximal level of a dose-dependent inhibition of GIP(Ag)-induced activation	–	–	–	–	–	–
dulaglutide [reference compound]	–	–	–	decrease in blood glucose	significant decrease in the levels of insulin	decrease in food intake	decrease in collagen staining	decrease in hepatocellular ballooning and steatosis	the livers of control mice that received only PBS were much heavier compared to the mice receiving treatments	decreased	–	progressive weight loss	–	–	rapid decrease in insulin levels	well tolerated and no overt toxicities were noted	–	–	–	–
GLP-1-Fc-GIP(Ag): chimeric protein: GLP-1 fused to GIP agonist (amino acids 1-42) via IgG1 hinge-CH2-CH3 Fc domain; SEQ ID NO: 93	–	rapid induction of insulin	much smaller increase in serum glucose	decrease in blood glucose	significant decrease in the levels of insulin	decrease in food intake	decrease in collagen staining	decrease in hepatocellular ballooning and steatosis	the livers of control mice that received only PBS were much heavier compared to the mice receiving treatments	decreased	–	progressive weight loss	–	–	rapid decrease in insulin levels	well tolerated and no overt toxicities were noted	stimulated insulin production to a similar, if not greater magnitude than dulaglutide or tirzepatide	improved glucose tolerance	induced weight loss	greater decrease in collagen staining compared to the livers from mice treated with tirzepatide or dulaglutide
GLP-1-Fc-GIP(AntPro3): chimeric protein: GLP-1 fused to GIP antagonist (amino acids 1-42, E3P) via IgG1 Fc domain; SEQ ID NO: 95	–	rapid induction of insulin	much smaller increase in serum glucose	decrease in blood glucose	significant decrease in the levels of insulin	decrease in food intake	decrease in collagen staining	decrease in hepatocellular ballooning and steatosis	the livers of control mice that received only PBS were much heavier compared to the mice receiving treatments	decreased	–	progressive weight loss	–	–	rapid decrease in insulin levels	well tolerated and no overt toxicities were noted	–	improved glucose tolerance	induced weight loss	greater decrease in collagen staining compared to the livers from mice treated with tirzepatide or dulaglutide
